Source: patent US10100366B2, “Methods of detecting cancers sensitive to cabozantinib” (Oregon Health & Science University, priority 2015, dated 2018)

Columns and labels:
[1] = target: T1, Ba/F3 cells expressing CD74-ROS1 D2033N (Homo sapiens, UniProt P08922, D2033N); assay: Cell growth/viability assay (MTS), Ba/F3 CD74-ROS1 D2033N; format: cell-based
T1 construct: CD74 (fusion partner, N-terminal part of CD74); expressed in transfected cells; host or cells: Ba/F3 (murine pro-B), retroviral transduction, IL-3 withdrawn; the other entry of the earlier key: CD74 (P04233, HLA class II histocompatibility antigen gamma chain)
Method: (§1) CD74-ROS1D2033N was generated using site-directed mutagenesis by following manufacturer's protocol (Agilent). Ba/F3 cells were maintained at densities of 0.5-1.5×10^6 cells/mL and infected with retrovirus encoding native or mutant versions of human CD74-ROS1. GFP-based selection of transduced cells was performed with a FACSAria cell sorter (BD Biosciences). Stable cell lines were washed with complete medium to remove IL-3. Cells that grew out after IL-3 withdrawal were maintained in complete medium and used for in vitro assays.
(§2) Inhibitors were prepared as 1 mM stocks in DMSO prior to each experiment. […] Ba/F3 cells expressing CD74-ROS1 constructs were seeded (800 cells/well; 25 μL) into drug plates using a Multidrop Combi Reagent Dispenser (Thermo Scientific), and plates were incubated for 72 h at 37° C., 5% CO2. Viability was measured using a methanethiosulfonate (MTS)-based assay (CellTiter96 Aqueous One Solution; Promega) read on a Biotek Synergy 2 plate reader. Proliferation experiments were performed three independent times in triplicate.

[2] = test system: CD74-ROS1-rearranged lung adenocarcinoma with acquired CD74-ROS1 D2033N mutation; assay: Patient case: cabozantinib after acquired crizotinib resistance (phase II trial NCT01639508), RECIST v1.1; format: in vivo, human; details: one patient, 60 mg daily, at 12 weeks
Method: The patient received cabozantinib at a dose of 60 mg daily in 28-day cycles as part of an ongoing phase II clinical trial (NCT01639508) with an arm for ROS1-rearranged lung cancers. Inclusion criteria for patients in this trial were as follows: pathologic or cytologic evidence of non-small-cell lung cancer (NSCLC), clinical stage IV or recurrent/medically inoperable disease, a Karnofsky performance status of more than 70%, a life expectancy of more than 12 weeks, adequate hematologic, renal, and hepatic function, and measurable disease. Informed consent was obtained after the nature and possible consequences of the studies were explained. Treatment was discontinued in the event of disease progression, unacceptable toxicity, or patient withdrawal. Dose reductions were permitted as per a prescribed algorithm. Response was assessed using the Response Evaluation Criteria in Solid Tumors (RECIST) version 1.1 (Eisenhauer E A et al, Eur J Cancer 45, 228-247 (2009); incorporated by reference herein). Imaging was performed at baseline, 4 weeks, and every 8 weeks thereafter. In addition, scans to confirm response were performed as per RECIST. […]
Of 644 sequencing reads over that specific region of ROS1 that were at […] depth, the variant frequency of c.6097G>A was 14% in the crizotinib-resistant tumor specimen and undetectable the matched normal peripheral blood control. […]

[3] = target: T2, Ba/F3 cells expressing native CD74-ROS1 (Homo sapiens, UniProt P08922); assay: Cell growth/viability assay (MTS), Ba/F3 native CD74-ROS1; format: cell-based; details: 72 h exposure, read-out: IC50, growth inhibition
T2 construct: CD74 (fusion partner, N-terminal part of CD74); expressed in transfected cells; host or cells: Ba/F3 (murine pro-B), retroviral transduction, IL-3 withdrawn; the other entry of the earlier key: CD74 (P04233, HLA class II histocompatibility antigen gamma chain)
Method: as §1, §2

[4] = test system: Ba/F3 CD74-ROS1 cells; assay: Immunoblot analysis of ROS1 and downstream effector phosphorylation, native CD74-ROS1 cells; format: cell-based, human; details: 2 h treatment
Method: Ba/F3 CD74-ROS1 and CD74-ROS1D2033N […] cells were treated with the indicated concentrations of inhibitors for 2 h, pelleted, washed once in ice-cold PBS, and lysed in 200 μL of cell lysis buffer (Cell Signaling Technology) that was supplemented with 0.25% deoxycholate, 0.05% SDS, and protease and phosphatase inhibitors. Equal amounts of protein were extracted with SDS sample buffer for 15 min at 80° C. and resolved on 4-15% Tris-glycine or 4-12% Bis-Tris precast gels (Criterion; Bio-Rad). Proteins transferred to Immobilon-FL membranes (Millipore) were probed with: phospho-ROS1 [Cell Signaling Technology (CST); 3078, 1:1000], total ROS1 (CST; 3266, 1:1000), phospho-ERK1/2 (CST; 9101, 1:1000), total ERK2 (Santa Cruz; sc-1647, 1:2000), phospho-AKT (CST; 4060, 1:1000), AKT (BD Transduction Laboratories; 610860, 1:1000), pSHP2 (CST; 3703), pSTAT3 (CST, 9131), and GAPDH (Ambion; AM4300, 1:5000). Blots were imaged using either a LI-COR Odyssey imaging system or the Bio-Rad ChemiDoc imaging station according to the manufacturer's protocol for immunoblot detection with use of Infrared dye or horseradish peroxidase-conjugated secondary antibodies, respectively.

[5] = test system: CD74-ROS1-rearranged lung adenocarcinoma; assay: Patient case: crizotinib treatment, response by RECIST v1.1; format: in vivo, human; details: one patient, 250 mg twice daily
Text: A never smoker with metastatic lung adenocarcinoma involving the pleura received three cycles of first-line systemic therapy with cisplatin, pemetrexed, and bevacizumab (FIG. 1, FIG. 9).

[6] = test system: ROS1-rearranged lung cancers; details: phase 1 expansion cohort data; cited from earlier work

T1 sequence (P08922 1883-2347 D2033N limits assumed): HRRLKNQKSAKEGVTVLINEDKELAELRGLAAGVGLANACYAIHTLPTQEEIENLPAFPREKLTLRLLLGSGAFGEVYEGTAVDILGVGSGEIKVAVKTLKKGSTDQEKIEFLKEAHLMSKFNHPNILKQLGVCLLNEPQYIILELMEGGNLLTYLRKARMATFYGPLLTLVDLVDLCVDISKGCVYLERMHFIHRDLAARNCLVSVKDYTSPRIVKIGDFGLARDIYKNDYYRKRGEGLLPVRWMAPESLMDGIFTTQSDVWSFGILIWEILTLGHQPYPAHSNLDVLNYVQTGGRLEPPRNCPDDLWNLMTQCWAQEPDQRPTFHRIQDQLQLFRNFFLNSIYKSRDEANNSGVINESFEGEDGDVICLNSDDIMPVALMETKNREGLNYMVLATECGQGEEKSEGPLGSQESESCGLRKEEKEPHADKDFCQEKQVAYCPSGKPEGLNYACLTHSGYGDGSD
T2 sequence (P08922 with tags, fused parts or gaps): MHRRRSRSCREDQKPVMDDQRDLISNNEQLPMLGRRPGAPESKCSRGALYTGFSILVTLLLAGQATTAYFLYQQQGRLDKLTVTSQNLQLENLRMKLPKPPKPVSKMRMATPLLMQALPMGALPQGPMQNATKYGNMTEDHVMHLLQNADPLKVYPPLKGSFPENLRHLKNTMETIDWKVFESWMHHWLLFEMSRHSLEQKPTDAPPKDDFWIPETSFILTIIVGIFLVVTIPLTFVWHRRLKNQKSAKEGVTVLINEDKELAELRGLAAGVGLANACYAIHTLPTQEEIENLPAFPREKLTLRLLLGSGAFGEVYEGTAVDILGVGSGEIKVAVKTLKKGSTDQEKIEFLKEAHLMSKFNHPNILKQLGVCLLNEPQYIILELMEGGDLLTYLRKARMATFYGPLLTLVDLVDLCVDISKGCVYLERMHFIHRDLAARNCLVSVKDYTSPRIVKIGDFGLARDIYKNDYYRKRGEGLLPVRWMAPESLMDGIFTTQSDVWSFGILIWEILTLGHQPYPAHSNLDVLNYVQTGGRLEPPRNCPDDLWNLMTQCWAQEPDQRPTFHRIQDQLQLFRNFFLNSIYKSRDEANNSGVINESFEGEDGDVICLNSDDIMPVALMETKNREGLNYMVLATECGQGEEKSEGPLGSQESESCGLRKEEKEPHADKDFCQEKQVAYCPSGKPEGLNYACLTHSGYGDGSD

For `COc1cc2nccc(Oc3ccc(NC(=O)C4(C(=O)Nc5ccc(F)cc5)CC4)cc3)c2cc1OC` [cabozantinib], the IC50 ([1]; read-out: IC50, growth inhibition, Ba/F3 CD74-ROS1D2033N cells, 72 h exposure) was 2.8 nM, the “reduction in disease burden” value [2] was 92% and the IC50 [3] was 0.78 nM.

For `Cc1cc(Nc2ncc(Cl)c(Nc3ccccc3S(=O)(=O)C(C)C)n2)c(OC(C)C)cc1C1CCNCC1` [ceritinib], the “fold decrease in sensitivity, CD74-ROS1D2033N compared to native CD74-ROS1” value ([1]; Ba/F3 cells, 72 h, ratio of IC50) was 4.3 fold.

In the case of `C[C@@H](Oc1cc(-c2cnn(C3CCNCC3)c2)cnc1N)c1c(Cl)ccc(F)c1Cl` [crizotinib], the “inhibition of phosphorylation of ROS1 and downstream effectors SHP2, ERK1/2, AKT and STAT3” value [4] is reported as “dose-dependent inhibition”, the “time on drug until widespread disease progression” value [5] is reported as 26 months and the “clinical response (in words)” value ([5]; RECIST v1.1) is reported as “durable partial response”. For the same compound, the “reduction in disease burden” value ([5]; RECIST v1.1) was 64%, the median progression-free survival [6] was 19 months and the response rate [6] was 72%.

With `COc1cc2c(Oc3ccc(NC(=O)C4(C(=O)Nc5ccc(F)cc5)CC4)cc3F)ccnc2cc1OCCCN1CCOCC1` [foretinib] the “sensitivity of CD74-ROS1D2033N mutant (in words)” value ([1]; Ba/F3 cells, 72 h) was “remained highly sensitive”.
